According to patent US9285322B2, “pH modulation methods and systems for detecting binding events” (The Texas A&M University System, priority 2010, dated 2016):

Key:
different kinases = conditions: cited from earlier work
avidin [1] = molecular target: T1, avidin (Gallus gallus, UniProt P02701); test: protein-protein interaction assay: labeled avidin with biotinylated BSA in two parallel microfluidic channels; format: binding
calmodulin [2] = molecular target: T2, calmodulin (Homo sapiens, UniProt P0DP23); conditions: 1 M CaCl2, 66 μM dye-conjugated calmodulin, 10 mM Tris, 100 mM NaCl, pH 7.4
calmodulin [3] = molecular target: T2, calmodulin; conditions: read-out: equilibrium dissociation constant; cited from earlier work
avidin [4] = molecular target: T1, avidin; test: homogeneous biotin detection with ortho-TEXAS RED-conjugated avidin in microfluidic channels; format: binding; conditions: 200 μM biotin, 10 μM ortho-TEXAS RED-conjugated avidin, PBS, pH 8.2
[5] = molecular target: biotinylated bovine serum albumin (bovine) (UniProt P02769); test: homogeneous pH modulation fluorescence assay in two parallel microfluidic channels; 3 uM labeled avidin, 500 nM biotinylated BSA, 150 mM NaCl, 10 mM PBS, pH 7.0
Sequence of biotinylated bovine serum albumin (bovine) (P02769 25-607 limits assumed): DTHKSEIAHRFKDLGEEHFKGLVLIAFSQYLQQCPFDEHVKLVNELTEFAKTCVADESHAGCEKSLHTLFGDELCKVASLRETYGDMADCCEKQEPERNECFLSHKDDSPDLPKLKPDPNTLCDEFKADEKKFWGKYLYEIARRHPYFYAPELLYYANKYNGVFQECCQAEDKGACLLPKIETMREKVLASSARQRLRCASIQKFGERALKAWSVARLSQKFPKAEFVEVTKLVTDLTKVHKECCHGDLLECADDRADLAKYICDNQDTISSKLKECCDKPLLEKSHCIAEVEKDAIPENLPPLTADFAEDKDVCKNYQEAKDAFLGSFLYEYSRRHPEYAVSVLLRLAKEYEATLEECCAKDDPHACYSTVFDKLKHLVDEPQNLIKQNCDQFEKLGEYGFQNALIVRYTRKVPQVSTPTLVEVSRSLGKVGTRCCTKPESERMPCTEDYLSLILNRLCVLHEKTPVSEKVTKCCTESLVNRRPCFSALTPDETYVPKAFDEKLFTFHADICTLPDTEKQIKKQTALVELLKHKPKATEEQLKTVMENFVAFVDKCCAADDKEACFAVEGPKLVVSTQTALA

T1 sequence (P02701 25-152): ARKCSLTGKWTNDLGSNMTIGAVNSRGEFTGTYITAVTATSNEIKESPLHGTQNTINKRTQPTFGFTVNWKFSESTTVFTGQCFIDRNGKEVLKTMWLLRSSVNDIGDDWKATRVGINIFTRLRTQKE

Nc1ncnc2c1ncn2[C@@H]1O[C@H](COP(=O)(O)OP(=O)(O)OP(=O)(O)O)[C@@H](O)[C@H]1O [ATP, adenosine triphosphate]
affinities of different kinases for ATP (different kinases): tens of nanomolar to hundreds of micromolar

biotinylated BSA: biotinylated bovine serum albumin
signal in channel with biotinylated BSA relative to channel without (times brighter) (avidin [1]; 500 nM biotinylated BSA, 3 μM ortho-TEXAS RED succinimidyl ester labeled avidin, 150 mM NaCl, 10 mM PBS, pH 7.0): approximately eight

[Ca+2].[Cl-].[Cl-] [Ca^2+, calcium chloride]
attenuation in fluorescence intensity (factor) when Ca2+ is present (calmodulin [2]): two
Kd (calmodulin [3]): 14 µM

para-sulforhodamine 101 [para-TEXAS RED®]
fluorescence difference between channels with and without biotinylated BSA, control dye (avidin [1]; control with para-TEXAS RED under identical conditions (500 nM biotinylated BSA, pH 7.0)): no difference between the two channels

O=C(O)CCCC[C@@H]1SC[C@@H]2NC(=O)N[C@@H]21 [biotin]
fluorescence intensity increase (factor) when biotin was present (avidin [4]): six

ortho-TEXAS RED succinimidyl ester labeled avidin (from UniProt P02701 25-152)
fluorescence intensity with biotinylated BSA relative to the channel without it [5]: 8 fold
